{
  "source": "paper PMC10582583",
  "about": "“The novel cyclophilin inhibitor C105SR reduces hepatic ischaemia–reperfusion injury via mitoprotection” (JHEP Reports, 2023)",
  "key": {"AML-12 cells [1]": {"system": "AML-12 cells", "assay": "LDH release, hypoxia/reoxygenation", "assay_type": "cell-based, mouse", "details": "for inhibition of LDH release / LDH release: 4 h hypoxia, 2 h reoxygenation; for LDH release: applied during hypoxia and reoxygenation", "description": "(§1) As expected, cells subjected to hypoxia/reoxygenation were characterised by greater LDH release and reduced cell viability as compared to untreated controls (Fig. 4A and 4B). […]\n(§2) Hypoxia/reoxygenation (H/R) in vitro model. AML-12 mouse hepatocyte line was obtained from American Type Culture Collection (ATCC) and maintained in DMEM/F12 culture medium at 37°C with 5% CO2. HepaRG human hepatocyte line was obtained from American Type Culture Collection (ATCC) and maintained in William’S E culture medium at 37°C with 5% CO2.When indicated, cells were incubated in phosphate buffered saline at 37°C in a hypoxic chamber filled with 94% N2, 1% O2, 5% CO2 for 4 h to mimic ischemic conditions. Then, cells were transferred to a CO2 incubator at 37°C in regular DMEM/F12 culture medium for 1 or 2 h under normoxic conditions (74% N2, 21% O2, 5% CO2). SMCypIs or vehicle (DMSO) were added during the hypoxia period, during the reoxygenation period, or during both. CsA and ALV were used as positive controls for hepatic protection against H/R injury. […]\nCell viability assays. Lactate dehydrogenase (LDH) release in culture medium was assessed using the commercially non-radioactive CytoTox-96 kit (Promega, Madison, Wisconsin) following the manufacturer’s instructions. Briefly, cell culture media were collected and the LDH activity was determined by measuring absorbance at 491 nm with a spectrometer (Multiskan skyHigh). For 3-(4,5-dimethylthiazol-2-yl)-2,5-diphenyltetrazolium bromide (MTT) assay, cells were incubated with a solution of MTT (0.5 mg/mL) for 2 h at 37°C. The medium was then removed and 50 µL DMSO was added to each well. Optical density of purple formazan product was measured at 550 nm. Cell viability was expressed as a percentage of the untreated control."}, "AML-12 cells [2]": {"system": "AML-12 cells", "assay": "mPTP opening, CoCl2-calcein AM fluorescence-quenching assay, hypoxia/reoxygenation", "assay_type": "cell-based, mouse", "details": "for prevention of mPTP opening (loss of calcein fluorescence): 1 μM, 4 h hypoxia, 1 h reoxygenation", "description": "We next evaluated the ability of compounds C105SR and C110SR to inhibit mPTP opening in cells. The hepatocyte cell line AML-12 was subjected to 4 h of hypoxia followed by 1 h of reoxygenation and mPTP opening was monitored using the CoCl2-calcein-acetoxymethyl ester (AM) fluorescence-quenching method.[19] Calcein-AM is a membrane permeable fluorophore which passively diffuses in all subcellular compartments including mitochondria. In the cell, the AM group of the fluorophore is cleaved by ubiquitous intracellular esterases, generating a hydrophilic product that is retained within the cell. The cells are then loaded with the divalent cobalt cation (Co^2+), which quenches calcein fluorescence in all subcellular compartments except the mitochondrial matrix, because the inner mitochondrial membrane is impermeable to cobalt. However, when mPTP is open, cobalt enters mitochondria and quenches mitochondrial calcein fluorescence. […]\nHypoxia/reoxygenation (H/R) in vitro model. AML-12 mouse hepatocyte line was obtained from American Type Culture Collection (ATCC) and maintained in DMEM/F12 culture medium at 37°C with 5% CO2. HepaRG human hepatocyte line was obtained from American Type Culture Collection (ATCC) and maintained in William’S E culture medium at 37°C with 5% CO2.When indicated, cells were incubated in phosphate buffered saline at 37°C in a hypoxic chamber filled with 94% N2, 1% O2, 5% CO2 for 4 h to mimic ischemic conditions. Then, cells were transferred to a CO2 incubator at 37°C in regular DMEM/F12 culture medium for 1 or 2 h under normoxic conditions (74% N2, 21% O2, 5% CO2). SMCypIs or vehicle (DMSO) were added during the hypoxia period, during the reoxygenation period, or during both. CsA and ALV were used as positive controls for hepatic protection against H/R injury.\nMonitoring of mPTP opening. mPTP opening was monitored in AML-12 cells using the CoCl2-calcein AM fluorescence-quenching assay. Cells were loaded with 1 µM calcein-AM (green) for 20 min. Then, 1 mM CoCl2 was added and cells were incubated for another 10 min. Cells were washed and subjected to 4 h of hypoxia followed by 1 h of reoxygenation. Calcein fluorescence was measured using a spectrofluorimeter at excitation and emission wavelengths of 485 nm and 535 nm, respectively. Images were acquired using a standard inverted fluorescence microscope (Zeiss Axio, […]\nmedia during the entire H/R period. Images shown are representative images of 12-18 images. […]\nOptical density of purple formazan product was measured at 550 nm. […]"}, "CypD": {"target": "CypD (Homo sapiens, UniProt P30405)", "sequence (P30405 30-207)": "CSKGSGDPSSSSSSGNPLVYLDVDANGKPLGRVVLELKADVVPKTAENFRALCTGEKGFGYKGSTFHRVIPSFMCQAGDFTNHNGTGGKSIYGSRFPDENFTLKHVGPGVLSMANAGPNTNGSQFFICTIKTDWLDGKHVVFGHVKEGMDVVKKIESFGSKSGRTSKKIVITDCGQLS", "assay": "CypD PPIase activity, chymotrypsin-coupled assay", "assay_type": "biochemical", "details": "for inhibition of CypD PPIase activity by diastereoisomers: 10 μM (Fig. 2A); for IC50: Table 2, enzyme assay"}, "AML-12 cells [3]": {"system": "AML-12 cells", "assay": "Cell viability by MTT assay, hypoxia/reoxygenation", "assay_type": "cell-based, mouse", "details": "4 h hypoxia, 2 h reoxygenation; for cell viability (MTT): applied during hypoxia and reoxygenation", "description": "as §1\nHypoxia/reoxygenation (H/R) in vitro model. […]\nas §2, with “Collection” for “Hypoxia/reoxygenation (H/R) in vitro model. AML-12 mouse hepatocyte line was obtained from American Type Culture Collection (ATCC) and maintained in DMEM/F12 culture medium at 37°C with 5% CO2. HepaRG human hepatocyte line was obtained from American Type Culture Collection”\nCell viability assays. […]\ndimethylthiazol-2-yl)-2,5-diphenyltetrazolium bromide (MTT) assay, cells were incubated with a solution of MTT (0.5 mg/mL) for 2 h at 37°C. The medium was then removed and 50 µL DMSO was added to each well. Optical density of purple formazan product was measured at 550 nm. Cell viability was expressed as a percentage of the untreated control."}},
  "data": [
    {"smiles": "COc1ccc(Br)cc1[C@H](NC(=O)NCc1ccc2c(c1)CCCN2)C(=O)N1CCC[C@@H]1c1cccc2ccsc12", "note": "[Compound C105SR, 1-((S)-2-((R)-2-(benzo[b]thiophen-7-yl)pyrrolidin-1-yl)-1-(5-bromo-2-methoxyphenyl)-2-oxoethyl)-3-((1,2,3,4-tetrahydroquinolin-6-yl)methyl)urea]", "values": [
      {"measurement": "inhibition of cell death", "setting": "AML-12 cells [1]; 0.5 μM", "value": "inhibited"},
      {"measurement": "inhibition of LDH release", "setting": "AML-12 cells [1]; 0.5 μM", "value": "potent activity inhibiting LDH release"},
      {"measurement": "LDH release", "setting": "AML-12 cells [1]", "value": "reduced LDH release"},
      {"measurement": "inhibition of mPTP opening", "setting": "AML-12 cells [2]; 0.5 μM", "value": "inhibited"},
      {"measurement": "prevention of mPTP opening (loss of calcein fluorescence)", "setting": "AML-12 cells [2]", "value": "substantially prevented"},
      {"measurement": "inhibition of CypD PPIase activity by diastereoisomers", "setting": "CypD", "value": "inhibited CypD PPIase activity"},
      {"measurement": "IC50", "setting": "CypD", "value": "5 ± 1", "unit": "nM"},
      {"measurement": "viability at 0.5 µM", "setting": "AML-12 cells [3]; Mus musculus, AML12, 0.5 μM, read-out: increase in cell viability", "value": "~75", "unit": "%"},
      {"measurement": "cell viability (MTT)", "setting": "AML-12 cells [3]", "value": "increased cell viability"}
    ]},
    {"smiles": "COc1ccc(Br)cc1[C@H](NC(=O)NCc1ccc(N)cc1)C(=O)N1CCC[C@@H]1c1cccc2ccsc12", "note": "[Compound C110SR, 1-(4-aminobenzyl)-3-((S)-2-((R)-2-(benzo[b]thiophen-7-yl)pyrrolidin-1-yl)-1-(5-bromo-2-methoxyphenyl)-2-oxoethyl)urea]", "values": [
      {"measurement": "inhibition of LDH release", "setting": "AML-12 cells [1]; 0.5 μM", "value": "not effective"},
      {"measurement": "LDH release", "setting": "AML-12 cells [1]", "value": "reduced LDH release"},
      {"measurement": "prevention of mPTP opening (loss of calcein fluorescence)", "setting": "AML-12 cells [2]", "value": "substantially prevented"},
      {"measurement": "inhibition of CypD PPIase activity by diastereoisomers", "setting": "CypD", "value": "inhibited CypD PPIase activity"},
      {"measurement": "IC50", "setting": "CypD", "value": "8 ± 2", "unit": "nM"},
      {"measurement": "increase in cell viability", "setting": "AML-12 cells [3]; 0.5 μM", "value": "not effective"},
      {"measurement": "cell viability (MTT)", "setting": "AML-12 cells [3]", "value": "increased cell viability"}
    ]}
  ]
}
